This note sets out measurements from PubChem BioAssay AID328 (DTP/NCI, 2004).

The test system of the assay is BDF1 mice, P388 leukemia ip, median survival T/C. Nature of the assay: NCI In Vivo Anticancer Drug Screen. Data for tumor model P388 Leukemia (intraperitoneal) in B6D2F1 (BDF1) mice. The settings on record: endpoint: median survival time, higher = longer survival. The essentials:
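Vehicle-dosed animals serve as the reference; survival of compound-dosed, tumour-implanted mice is divided by it.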

Setting [1] is: dose: 50.0 mg/kg/injection, schedule: Q01DX009 (ip), vehicle: saline.
Where [2] appears, read: dose: 100.0 mg/kg/injection, schedule: Q01DX009 (ip), vehicle: saline.
Setting [3] is: dose: 200.0 mg/kg/injection, schedule: Q04DX003 (ip), vehicle: saline.
The mark [4] stands for this setting: dose: 12.5 mg/kg/injection, schedule: Q01DX009 (ip), vehicle: saline.
The mark [5] stands for this setting: dose: 100.0 mg/kg/injection, schedule: Q04DX003 (ip), vehicle: saline with Tween-80.
[6] abbreviates: dose: 200.0 mg/kg/injection, schedule: Q04DX003 (ip), vehicle: saline with Tween-80.
Setting [7] is: dose: 400.0 mg/kg/injection, schedule: Q04DX003 (ip), vehicle: saline with Tween-80.
[8] abbreviates: dose: 200.0 mg/kg/injection, schedule: Q01DX009 (ip), vehicle: saline.
Where [9] appears, read: dose: 100.0 mg/kg/injection, schedule: Q01DX009 (ip), vehicle: saline with Tween-80.
[10] abbreviates: dose: 200.0 mg/kg/injection, schedule: Q01DX009 (ip), vehicle: saline with Tween-80.
Where [11] appears, read: dose: 50.0 mg/kg/injection, schedule: Q01DX009 (ip), vehicle: saline with Tween-80.
Where [12] appears, read: dose: 100.0 mg/kg/injection, schedule: Q04DX003 (ip), vehicle: saline sonified.
The mark [13] stands for this setting: dose: 200.0 mg/kg/injection, schedule: Q04DX003 (ip), vehicle: saline sonified.

Molecules are shown by their SMILES. Where “and” joins values, the source holds several entries; their conditions need not be identical. Equal values may be shown once. Inconclusive results and toxic doses are left out.

As for `CC1(c2ccccc2)O[C@@H]2C[C@H]3[C@@H]4CCC5=CC(=O)C=C[C@]5(C)[C@@]4(F)[C@@H](O)C[C@]3(C)[C@]2(C(=O)CO)O1` (stereo not given in full), the T/C is 100 % of control under setting [1]; 100 % of control under setting [2]; 90 % of control and 95 % of control (2×) (dose: 132.0 mg/kg/injection, schedule: Q04DX003 (ip), vehicle: saline); 86 % of control and 95 % of control and 100 % of control under setting [3]; 105 % of control (dose: 300.0 mg/kg/injection, schedule: Q04DX003 (ip), vehicle: saline); 105 % of control (dose: 400.0 mg/kg/injection, schedule: Q04DX003 (ip), vehicle: alcohol).

Turning to `Cc1cccnc1NC(=O)/C=C/C(=O)O`, the T/C runs as follows: (dose: 3.12 mg/kg/injection, schedule: Q01DX001 (ip), vehicle: saline) 100 % of control; (dose: 6.25 mg/kg/injection, schedule: Q01DX001 (ip), vehicle: saline) 100 % of control; (dose: 12.5 mg/kg/injection, schedule: Q01DX001 (ip), vehicle: saline) 100 % of control; under setting [4], 95 % of control; (dose: 12.5 mg/kg/injection, schedule: Q04DX003 (ip), vehicle: saline) 100 % of control; (dose: 18.0 mg/kg/injection, schedule: Q01DX001 (ip), vehicle: saline) 109 % of control. Also, the T/C (dose: 25.0 mg/kg/injection, schedule: Q01DX009 (ip), vehicle: saline) is 100 % of control; the T/C (dose: 28.0 mg/kg/injection, schedule: Q01DX001 (ip), vehicle: saline) was 100 % of control; the T/C (dose: 40.0 mg/kg/injection, schedule: Q01DX001 (ip), vehicle: saline) is 104 % of control.

As to `Cc1ccc(NS(=O)(=O)c2ccccc2)cc1`, the T/C reads like this: under setting [5], 100 % of control; under setting [6], 100 % of control; under setting [7], 110 % of control.

Consider `C=CC(OC(C)=O)OC(C)=O`, for which the T/C (dose: 6.0 mg/kg/injection, schedule: Q01DX009 (ip), vehicle: saline with Tween-80) was 104 % of control; the T/C (dose: 8.0 mg/kg/injection, schedule: Q01DX009 (ip), vehicle: saline with Tween-80) was 115 % of control; the T/C (dose: 12.0 mg/kg/injection, schedule: Q01DX009 (ip), vehicle: saline with Tween-80) was 111 % of control; the T/C (dose: 12.5 mg/kg/injection, schedule: Q04DX003 (ip), vehicle: saline with Tween-80) was 108 % of control; the T/C (dose: 18.0 mg/kg/injection, schedule: Q01DX009 (ip), vehicle: saline with Tween-80) is 100 % of control; the T/C (dose: 25.0 mg/kg/injection, schedule: Q04DX003 (ip), vehicle: saline with Tween-80) was 117 % of control.

For the molecule `CCC(C)(C)C(=O)O`, the T/C under setting [1] was 100 % of control; the T/C (dose: 50.0 mg/kg/injection, schedule: Q04DX003 (ip), vehicle: saline) is 100 % of control; the T/C under setting [2] was 105 % of control; the T/C under setting [5] is 105 % of control; the T/C (dose: 100.0 mg/kg/injection, schedule: Q04DX003 (ip), vehicle: saline) was 104 % of control; the T/C under setting [8] was 110 % of control. The T/C was 110 % of control under setting [6], 100 % of control under setting [3] and 100 % of control under setting [7].

In the case of `NC(=O)NC1OC(COC(=O)c2ccccc2)C(OC(=O)c2ccccc2)C1OC(=O)c1ccccc1` (stereo not given), the T/C runs as follows: (dose: 50.0 mg/kg/injection, schedule: Q04DX003 (ip), vehicle: saline with Tween-80) 107 % of control; under setting [5], 90 % of control and 96 % of control; under setting [6], 93 % of control; under setting [7], 87 % of control and 90 % of control.

Consider `NC1(C(=O)O)CCCC1`, for which the T/C reads like this: (dose: 20.0 mg/kg/injection, schedule: Q01DX010 (ip), vehicle: water) 100 % of control; (dose: 22.5 mg/kg/injection, schedule: Q01DX010 (ip), vehicle: saline) 100 % of control and 120 % of control; (dose: 25.0 mg/kg/injection, schedule: Q01DX009 (ip), vehicle: carboxymethylcellulose (CMC)) 93 % of control; (dose: 45.0 mg/kg/injection, schedule: Q01DX010 (ip), vehicle: saline) 110 % of control; (dose: 50.0 mg/kg/injection, schedule: Q01DX009 (ip), vehicle: carboxymethylcellulose (CMC)) 92 % of control; (dose: 80.0 mg/kg/injection, schedule: Q01DX010 (ip), vehicle: water) 110 % of control. Also, the T/C is 185 % of control (dose: 90.0 mg/kg/injection, schedule: Q01DX010 (ip), vehicle: saline); 100 % of control under setting [9]; 87 % of control (dose: 200.0 mg/kg/injection, schedule: Q01DX009 (ip), vehicle: carboxymethylcellulose (CMC)); 90 % of control under setting [10].

In the case of `Cc1cc2nc[nH]c(=O)n2n1`, the T/C is, setting by setting: under setting [11], 110 % of control; under setting [9], 90 % of control.

Consider `c1ccc(P(=NC2CCCC2)(c2ccccc2)c2ccccc2)cc1`, for which the T/C is 110 % of control under setting [5], 100 % of control under setting [6] and 110 % of control under setting [7].

On to `CCCCOCCOc1ccc(C(=O)OC)cc1`, for which the T/C by setting is: (dose: 50.0 mg/kg/injection, schedule: Q04DX003 (ip), vehicle: saline sonified) 100 % of control; under setting [12], 100 % of control; under setting [13], 105 % of control.

In the case of `[O-]c1c(Cl)c(Cl)c(O[P+](c2ccccc2)(c2ccccc2)c2ccccc2)c(Cl)c1Cl`, the T/C is 116 % of control (dose: 6.25 mg/kg/injection, schedule: Q01DX009 (ip), vehicle: saline) and 122 % of control under setting [4].

For `O=C1NC(=O)C(c2ccc(Cl)cc2)(c2ccccc2Cl)N1` (stereo not given), the T/C is 100 % of control under setting [12]; 95 % of control under setting [13]; 100 % of control (dose: 400.0 mg/kg/injection, schedule: Q04DX003 (ip), vehicle: saline sonified).

Take `CCOC(=O)C1=C(C)NC(=O)NC1c1ccc(N=Cc2cc(Br)ccc2O)cc1` (stereo not given): the T/C (dose: 75.0 mg/kg/injection, schedule: Q01DX001 (ip), vehicle: saline with Tween-80) was 95 % of control; the T/C (dose: 150.0 mg/kg/injection, schedule: Q01DX001 (ip), vehicle: saline with Tween-80) was 90 % of control; the T/C (dose: 300.0 mg/kg/injection, schedule: Q01DX001 (ip), vehicle: saline with Tween-80) was 90 % of control.

`O=[N+]([O-])c1ccc(NCc2ccccc2)nc1`: the T/C (dose: 25.0 mg/kg/injection, schedule: Q01DX009 (ip), vehicle: saline with Tween-80) is 107 % of control; the T/C under setting [11] is 109 % of control; the T/C under setting [9] is 114 % of control.

For the molecule `CC(N)c1ccccc1` (stereo not given) (tested in a mixture with another compound), the T/C by setting is: under setting [1], 96 % of control; under setting [2], 104 % of control; under setting [8], 95 % of control.

In the case of `N/C(CCNO)=N\O`, the T/C (dose: 75.0 mg/kg/injection, schedule: Q01DX009 (ip), vehicle: saline) was 96 % of control; the T/C (dose: 150.0 mg/kg/injection, schedule: Q01DX009 (ip), vehicle: saline) was 86 % of control; the T/C (dose: 300.0 mg/kg/injection, schedule: Q01DX009 (ip), vehicle: saline) is 96 % of control.

`CC(NC1=NCCO1)c1cccc2ccccc12` (stereo not given): the T/C reads like this: (dose: 100.0 mg/kg/injection, schedule: Q01DX001 (ip), vehicle: saline with Tween-80) 91 % of control; (dose: 200.0 mg/kg/injection, schedule: Q01DX001 (ip), vehicle: saline with Tween-80) 91 % of control; (dose: 400.0 mg/kg/injection, schedule: Q01DX001 (ip), vehicle: saline with Tween-80) 91 % of control.

For `Nc1nc(N)c(N=O)c(N)n1`, the T/C is, setting by setting: under setting [2], 150 % of control; under setting [8], 111 % of control; (dose: 400.0 mg/kg/injection, schedule: Q01DX009 (ip), vehicle: saline) 106 % of control.

With `CC(C)=C=CCN(C)Cc1ccccc1`, the T/C was 99 % of control under setting [1] and 103 % of control under setting [2].

As to `C(CCC1CO1)CC1CO1` (stereo not given), the T/C reads like this: (dose: 50.0 mg/kg/injection, schedule: Q04DX005 (ip), vehicle: saline with Tween-80) 115 % of control; (dose: 200.0 mg/kg/injection, schedule: Q04DX002 (ip), vehicle: saline with Tween-80) 173 % of control.

On to `COc1ccc(-c2cnc(C(N)=O)c(=O)[nH]2)cc1`, for which the T/C is, setting by setting: under setting [9], 104 % of control; under setting [10], 108 % of control; (dose: 400.0 mg/kg/injection, schedule: Q01DX009 (ip), vehicle: saline with Tween-80) 100 % of control.
